We go through 27 compounds from US10450297B2, “Sulfonyl amide derivatives for the treatment of abnormal cell growth” (Pfizer, Inc., priority 2007, dated 2019).

Where only a bound is given, the exact number is not on record here.

Chain of FAK kinase (catalytic construct FAK(410-689)) (Q05397 410-689): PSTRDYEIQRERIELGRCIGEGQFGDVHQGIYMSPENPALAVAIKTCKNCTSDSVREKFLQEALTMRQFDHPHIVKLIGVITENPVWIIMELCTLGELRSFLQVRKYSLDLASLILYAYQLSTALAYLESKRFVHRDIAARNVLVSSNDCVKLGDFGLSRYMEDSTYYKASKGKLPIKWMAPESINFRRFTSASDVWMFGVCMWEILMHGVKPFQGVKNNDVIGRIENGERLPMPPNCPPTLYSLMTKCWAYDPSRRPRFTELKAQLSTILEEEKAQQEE

This test addresses FAK kinase (catalytic construct FAK(410-689)) (Homo sapiens (Human), UniProt Q05397). Description: FAKcd kinase ELISA (inhibition of poly-glu-tyr phosphorylation by FAK(410-689)). It counts as biochemical. The following applies: 50 μM final ATP.
For `C[C@@H](N)c1ccc(Nc2ncc(C(F)(F)F)c(NCc3ncccc3N(C)S(C)(=O)=O)n2)cc1` [Compound 352, N-[2-({[2-({4-[(1R)-1-aminoethyl]phenyl}amino)-5-(trifluoromethyl)pyrimidin-4-yl]amino}methyl)pyridin-3-yl]-N-methylmethane-sulfonamide], the IC50 is less than 0.595 nM.

Compound `CN(c1ncccc1CNc1nc(Nc2ccc(C(=O)N3CCCC(O)C3)cc2)ncc1C(F)(F)F)S(C)(=O)=O` (stereo not drawn) [Compound 247, N-[3-({[2-({4-[(3-hydroxypiperidin-1-yl)carbonyl]phenyl}amino)-5-(trifluoromethyl)pyrimidin-4-yl]amino}methyl)pyridin-2-yl]-N-methylmethane-sulfonamide] yielded an IC50 of 0.63 nM. For `CN(c1ncccc1CNc1nc(Nc2ccc(C(=O)NCC3CC3)cc2)ncc1C(F)(F)F)S(C)(=O)=O` [Compound 252, N-(cyclopropylmethyl)-4-({4-[({2-[methyl(methylsulfonyl)amino}pyridin-3-yl}methyl)amino]-5-(trifluoromethyl)pyrimidin-2-yl}amino)benzamide] the value was 1.48 nM. For `Cc1cccc(NS(C)(=O)=O)c1CNc1nc(Nc2ccccc2)ncc1C(F)(F)F` [Compound 69, N-[2-({[2-anilino-5-(trifluoromethyl)pyrimidin-4-yl]amino}methyl)-3-methylphenyl]methane-sulfonamide] the value was 0.6 nM; for `CN(c1ncccc1CNc1nc(Nc2cccc(C(N)=NO)c2)ncc1C(F)(F)F)S(C)(=O)=O` [Compound 408, N′-hydroxy-3-({4-[({2-[methyl(methylsulfonyl)amino]pyridin-3-yl}methyl)amino]-5-(trifluoromethyl)pyrimidin-2-yl}amino)benzenecarboximidamide], 2.29 nM. Compound `Cc1cc(Nc2ncc(C(F)(F)F)c(NCc3cccnc3N(C)S(C)(=O)=O)n2)on1` [Compound 289, N-methyl-N-{3-[({2-[(3-methylisoxazol-5-yl)amino)-5-(trifluoromethyl)pyrimidin-4-yl}amino)methyl]pyridin-2-yl}methanesulfonamide] displayed an IC50 of 18.2 nM. In the case of `CN(c1cccnc1CNc1nc(Nc2ccc(C(N)=O)c(F)c2)ncc1C(F)(F)F)S(C)(=O)=O` [Compound 332, 2-fluoro-4-({4-[({3-[methyl(methylsulfonyl)amino]pyridin-2-yl}methyl)amino]-5-(trifluoromethyl)pyrimidin-2-yl}amino)benzamide], the concentration for half-maximal inhibition (IC50) was 0.863 nM. For `CN(c1ncccc1CNc1nc(Nc2cccc(C(=O)N3CCC(C)(O)C3)c2)ncc1C(F)(F)F)S(C)(=O)=O` (stereo not drawn) [Compound 135, N-[3-({(2-({3-[(3-hydroxy-3-methyipyrrolidin-1-yl)carbonyl]phenyl}amino)-5-(trifluoromethyl)pyrimidin-4-yl]amino}methyl)pyridin-2-yl]-N-methylmethane-sulfonamide] the value was 3.33 nM; for `CN(c1ncccc1CNc1nc(Nc2ccc(CO)cc2)ncc1C(F)(F)F)S(C)(=O)=O` [Example 6, N-(3-((2-(4-(hydroxymethyl)phenylamino)-5-(trifluoromethyl)pyrimidin-4-ylamino)methyl)pyridin-2-yl)-N-methylmethanesulfonamide], less than 0.595 nM. In turn, `CC(C)NC(=O)c1ccc(Nc2ncc(C(F)(F)F)c(NCc3cccnc3N(C)S(C)(=O)=O)n2)cc1` [Compound 242, N-isopropyl-4-({4-[({2-[methyl(methylsulfonyl)amino]pyridin-3-yl}methyl)amino]-5-(trifluoromethyl)pyrimidin-2-yl}amino)benzamide] had an IC50 of 1 nM.

`CN(c1ncccc1CNc1nc(NC2CCN(C(N)=O)CC2)ncc1C(F)(F)F)S(C)(=O)=O` [Compound 57, 4-({4-[({2-[methyl(methylsulfonyl)amino]pyridin-3-yl}methyl)amino]-5-(trifluoromethyl)pyrimidin-2-yl}amino)piperidine-1-carboxamide] yielded an IC50 of 188 nM. For `CN(c1ncccc1CNc1nc(Nc2ccc(C(=O)NC[C@H]3CCCO3)cc2)ncc1C(F)(F)F)S(C)(=O)=O` [Compound 238, 4-({4-[({2-[methyl(methylsulfonyl)amino]pyridin-3-yl}methyl)amino]-5-(trifluoromethyl)pyrimidin-2-yl}amino)-N-[(2R)-tetrahydrofuran-2-ylmethyl]benzamide] the value was 1.25 nM; for `CC(=O)NCC(=O)Nc1cccc(Nc2ncc(C(F)(F)F)c(NCc3cccc(N(C)S(C)(=O)=O)c3)n2)c1` [Compound 399, N-2-acetyl-N-(3-{[4-({3-[methyl(methylsulfonyl)amino]benzyl}amino)-5-(trifluoromethyl)pyrimidin-2-yl]amino}phenyl)glycinamide], 5.57 nM; for `CNC(=O)c1ccc(Nc2ncc(C(F)(F)F)c(NCc3nccnc3N(C)S(C)(=O)=O)n2)cc1C` [Compound 400, N,2-dimethyl-4-({4-[({3-[methyl(methylsulfonyl)amino]pyrazin-2-yl)methyl)amino]-5-(trifluoromethyl)pyrimidin-2-yl}amino)benzamide], 0.66 nM.

`CN(c1ncccc1CNc1nc(Oc2ccc(C(N)=O)cc2)ncc1C(F)(F)F)S(C)(=O)=O` [Compound 350, 4-({4-[({2-[methyl(methylsulfonyl)amino]pyridin-3-yl}methyl)amino]-5-(trifluoromethyl)pyrimidin-2-yl}oxy)benzamide] gave an IC50 of 63.7 nM. For `CC1CCCN1C(=O)c1cccc(Nc2ncc(C(F)(F)F)c(NCc3cccnc3N(C)S(C)(=O)=O)n2)c1` (stereo not drawn) [Compound 155, N-methyl-N-[3-({[2-({3-[(2-methylpyrrolidin-1-yl)carbonyl]phenyl}amino)-5-(trifluoromethyl)pyrimidin-4-yl]amino}methyl)pyridin-2-yl]methanesulfonamide] the value was 9.75 nM. To `COc1ccc(Nc2ncc(C(F)(F)F)c(NCc3cccnc3N(C)S(C)(=O)=O)n2)cc1OC` [Compound 282, N-{3-[({2-[(3,4-dimethoxyphenyl)amino]-5-(trifluoromethyl)pyrimidin-4-yl}amino)methyl]pyridin-2-yl}-N-methylmethane-sulfonamide] belongs 0.6 nM; to `CN(c1ncccc1CNc1nc(Nc2ccc(C(=O)N3CCC[C@@H](O)C3)cc2)ncc1C(F)(F)F)S(C)(=O)=O` [Compound 275, N-{3-[({2-[(4-{[(3R)-3-hydroxypiperidin-1-yl]carbonyl}phenyl)amino]-5-(trifluoromethyl)pyrimidin-4-yl}amino)methyl]pyridin-2-yl}-N-methylmethane-sulfonamide], 2.36 nM; to `CN(c1ncccc1CNc1nc(Nc2ccc(CC(=O)NC3CC3)cc2)ncc1C(F)(F)F)S(C)(=O)=O` [Compound 217, N-cyclopropyl-2-[4-({4-[({2~ [methyl(methylsulfonyl)amino]pyridin-3-yl}methyl)amino]-5-(trifluoromethyl)pyrimidin-2-yl}amino)phenyl]acetamide], 0.6 nM.

Compound `CN(c1ncccc1CNc1nc(Nc2ccc(/C(N)=N/O)cc2)ncc1C(F)(F)F)S(C)(=O)=O` [Compound 407, N′-hydroxy-4-({4-[({2-[methyl(methylsulfonyl)amino]pyridin-3-yl}methyl)amino]-5-(trifluoromethyl)pyrimidin-2-yl}amino)benzenecarboximidamide] gave an IC50 of less than 0.595 nM.

As for `CN(c1ncccc1CNc1nc(Nc2ccc(C#N)c(O)c2)ncc1C(F)(F)F)S(C)(=O)=O` [Compound 390, N-{3-[({2-[(4-cyano-3-hydroxyphenyl)amino]-5-(trifluoromethyl)pyrimidin-4-yl}amino)methyl]pyridin-2-yl}-N-methylmethane-sulfonamide], half-maximal inhibition (IC50) was put at 0.746 nM. For `CN(c1ncccc1CNc1nc(Nc2ccc(C(=O)N3CC(F)C3)cc2)ncc1C(F)(F)F)S(C)(=O)=O` [Compound 272, N-[3-(([2-({4-[(3-fluoroazetidin-1-yl)carbonyl]phenyl}amino)-5-(trifluoromethyl)pyrimidin-4-yl]amino}methyl)pyridin-2-yl]-N-methylmethane-sulfonamide] the value was 2.64 nM. To `CN(c1ncccc1CNc1nc(Nc2cccc(C(=O)NCc3ccccn3)c2)ncc1C(F)(F)F)S(C)(=O)=O` [Compound 139, 3-({4-[({2-[methyl(methylsulfonyl)amino]pyridin-3-yl}methyl)amino]-5-(trifluoromethyl)pyrimidin-2-yl}amino)-N-(pyridin-2-ylmethyl)benzamide] belongs 1.91 nM; to `CN(c1ncccc1CNc1nc(Nc2ccc(C(=O)N3C[C@@H](F)[C@H](F)C3)cc2)ncc1C(F)(F)F)S(C)(=O)=O` [Compound 232, N-{3-[({2-[(4-{[(3R,4R)-3,4-difluoropyrrolidin-1-yl]carbonyl}phenyl)amino]-5-(trifluoromethyl)pyrimidin-4-yl}amino)methyl]pyridin-2-yl}-N-methylmethane-sulfonamide], 2.62 nM. With `C[C@H](N)c1ccc(Nc2ncc(C(F)(F)F)c(NCc3ncccc3N(C)S(C)(=O)=O)n2)cc1` [Compound 356, N-[2-({[2-({4-[(1S)-1-aminoethyl]phenyl}amino)-5-(trifluoromethyl)pyrimidin-4-yl]amino}methyl)pyridin-3-yl]-N-methylmethane-sulfonamide], the IC50 was 0.593 nM. With `CNC(=O)c1ccc(Nc2ncc(C(F)(F)F)c(NCc3cccnc3N(C)S(C)(=O)=O)n2)c(C)c1` [Compound 403, N,3-dimethyl-4-({4-[({2-[methyl(methylsulfonyl)amino]pyridin-3-yl}methyl)amino)-5-(trifluoromethyl)pyrimidin-2-yl}amino)benzamide], inhibition was half-maximal at 1.09 nM (IC50). For `C[C@@H](CO)NC(=O)c1cccc(Nc2ncc(C(F)(F)F)c(NCc3cccnc3N(C)S(C)(=O)=O)n2)c1` [Compound 211, N-[(1S)-2-hydroxy-1-methylethyl]-3-({4-[({2-[methyl(methylsulfonyl)amino]pyridin-3-yl}methyl)amino]-5-(trifluoromelhyl)pyrimidin-2-yl}amino)benzamide] the value was 1.06 nM.
